These results are taken from US6951869B2, “Use of leukotriene receptor antagonist for treatment of scarring” (priority 2002, dated 2005).

One series deals with capsular contracture. As to the kind of experiment: Treatment of capsular contracture after breast implantation in patients (case reports, Bakers Class). Type of series: in vivo, human. The protocol:
The breasts remained soft until 4 years and 2 months following the operation. The left breast then developed Bakers Class III capsular contracture, but the right breast remained soft. Patient was then placed on ACCOLATE® 20 mg, twice daily. One month following the prescription of ACCOLATE®, the left breast was softer (Bakers Class II) and three months later, it was even softer (Bakers Class I). Four months following ACCOLATE® therapy, both breasts were soft again (Bakers Class I). […] Two weeks following the operation, patient developed bilateral Bakers Class III capsular contractures. […] Three months following the ACCOLATE® therapy, both breasts had achieved Bakers Class I status and at 8 months post-ACCOLATE® therapy, both breasts remained soft and at Bakers Class I level. […] Twenty days following the second operation, patient noted an increasing firmness of both breasts and breast massage and vitamin E therapy was continued. However, four months following the second operation, patient developed a severe capsular contracture in the left breast (Bakers Class IV). The right breast, however, remained soft (Bakers Class I). Patient was placed on ACCOLATE® at 20 mg twice daily. […] person was diagnosed with infiltrating ductal carcinoma in the left breast in June of 2000. Patient underwent a modified radical mastectomy with immediate reconstruction with placement of a tissue expander. […] Postoperatively, patient received chemotherapy (ADRIAMYCIN®, Cyclophosphamide, TAXOL®) and was placed on a study protocol for HERCEPTIN®. In February of 2001, patient underwent exchange of the tissue expander for a […] textured saline implant which was placed submuscularly. Six weeks following the implant placement, patient received local radiation therapy to the left breast of which they received a total of 5000 rads. Immediately following the radiation therapy, patient noted redness and blistering of the skin surrounding the left breast. Three weeks post-radiation therapy, patient noted hardening of the left breast mound, which quickly progressed to a Bakers Class IV capsular contracture by the fifth week following radiation therapy. […] Patient was then placed on ACCOLATE® therapy at 20 mg twice a day. […] Additionally, patient noted a significant improvement in the mastectomy scar which had been extremely hard and firm prior to the ACCOLATE® therapy. […] person underwent augmentation mammoplasty in 1986. 250 cc silicon implants were placed on each side above the muscle. Postoperatively the subject had no complications. The breasts remained soft for 5 years. In 1991, subject noted increasing firmness in both breasts. Subject received no treatment at that time. 17 years after surgery, subject was presented for possible surgical intervention. Upon examination, subject was noted to have Bakers Class IV capsular contractures bilaterally and was placed on Zafirlukast (Accolate®) 20 mg two times daily. […] Three months post Zafirlukast (Accolate®) therapy, subject went progressed a Bakers Class IV to a Bakers Class III on the right and a Bakers Class II on the left.

For the next series, the system named is mastectomy scar. The series is described as follows: Effect on mastectomy scar in a patient (case report). The class given is in vivo, human. Particulars: Example IV patient, scar extremely hard and firm before therapy; 20 mg twice a day. From the text:
Person was diagnosed with infiltrating ductal carcinoma in the left breast in June of 2000. Patient underwent a modified radical mastectomy with immediate reconstruction with placement of a tissue expander. […] Postoperatively, patient received chemotherapy (ADRIAMYCIN®, Cyclophosphamide, TAXOL®) and was placed on a study protocol for HERCEPTIN®. In February of 2001, patient underwent exchange of the tissue expander for a […] textured saline implant which was placed submuscularly. Six weeks following the implant placement, patient received local radiation therapy to the left breast of which they received a total of 5000 rads. Immediately following the radiation therapy, patient noted redness and blistering of the skin surrounding the left breast. Three weeks post-radiation therapy, patient noted hardening of the left breast mound, which quickly progressed to a Bakers Class IV capsular contracture by the fifth week following radiation therapy. […] Patient was then placed on ACCOLATE® therapy at 20 mg twice a day. […] Additionally, patient noted a significant improvement in the mastectomy scar which had been extremely hard and firm prior to the ACCOLATE® therapy.

The conditions of series [1]: 20 mg twice daily accepted dosage, adults and children ages 12 and up; cited from earlier work.
The mark [2] stands for this setting: Example IV patient, 20 mg twice a day, after one month.

For the compound `COc1cc(C(=O)NS(=O)(=O)c2ccccc2C)ccc1Cc1cn(C)c2ccc(NC(=O)OC3CCCC3)cc12` [ACCOLATE®], in the series with capsular contracture (Example IV patient, post-radiation Bakers Class IV before therapy, 20 mg twice a day, two weeks), the “Softness of breast implant” value is “noticeable softening”. Also, in the series with capsular contracture (setting [2]), the “Bakers Class of capsular contracture, left breast implant” value is on record as “approaching a Bakers Class I softness”; the Pain and distortion entry is listed as “completely gone”. Further, the “Softness of both breasts” value in the series with capsular contracture (Example V patient, bilateral Bakers Class IV before therapy, 20 mg two times daily, 3 weeks) is on record as “some improvement”. For the same compound, the “Mastectomy scar appearance and hardness” value with mastectomy scar was “both softer and less noticeable”. Also, in series [1], the “Reported side effect: headaches” value was 12.9% and the “Reported side effect: nausea” value was 3.1%.
Take vitamin E: the “Relief of capsular contracture” value with capsular contracture (Example IV patient, Bakers Class IV, given with breast massage, before ACCOLATE therapy) is “without relief”.
